Read-outs that look alike come from different tables or passages of the source.
System: tetrabenazine-induced sedation and depression in mice
Experiment: Antagonism of tetrabenazine-induced depression in mice, orally, at 1 hour post-drug
Type: in vivo, female white mice (Carworth CF1 S)
Conditions: Mus musculus
Protocol: This mouse test is predictive of human antidepressant response (Everett, "The Dopa Response Potentiation Test and Its Use in Screening for Antidepressant Drugs," pp. 164 in "Antidepressant Drugs" (Proceedings of the First International Symposium), S. Garattini and M. N. G. Dukes, eds., 1967).
Groups of 10 Carworth CF1 S female mice, 18-21 g each, were fasted 1.5 hours and were intubated with antagonist compounds at oral doses of 0, 0.33, 1, 3, 9, 27, and 81 mg/kg in 0.20 ml of 1% Methocel-1.25% Tween 80. The mice were challenged 30 minutes later with tetrabenazine (as the methanesulfonate), 32 mg/kg intraperitoneally (dissolved in 0.20 ml 0.05 M KCl at pH 2.0). One hour after antagonist (30 minutes after tetrabenazine), the mice were examined for signs of exploratory activity and ptosis (eyelid closure). Normal exploratory activity (relief from sedation) was recorded when a mouse lifted by the tail from a group of 10 in a testing box and placed on a stainless testing box lid (12.5"×8"with 0.33" mesh) either turned its head horizontally 30° in both directions or moved to the edge of the screen within 10 seconds after being placed on the screen. Relief from ptosis was recorded when exactly two seconds after placing the mouse facing the observer, lid closure was less than 50% in both eyes.

[1] = po, 1 h, read-out: ED50 for prevention of exploratory loss
[2] = po, 1 h, read-out: ED50 for prevention of ptosis

CN(C)CCC=C1c2ccccc2CCc2ccccc21 [Amitriptyline, reference compound]
ED50 (oral, 1 hour post-drug (30 min after tetrabenazine 32 mg/kg i.p.), exploratory activity, read-out: ED50 for prevention of exploratory loss): 3.5 mg/kg
ED50 (oral, 1 hour post-drug (30 min after tetrabenazine 32 mg/kg i.p.), lid closure less than 50% in both eyes, read-out: ED50 for prevention of ptosis): 1.4 mg/kg

CN1CCC(O)(c2cccn2C)CC1 [Example 1, 1-Methyl-4-(1-methylpyrrol-2-yl)-4-piperidinol]
ED50 [1]: 1.8 mg/kg
ED50 [2]: 1.1 mg/kg

CN1CC=C(c2cccn2C)CC1.Cl [Example 2, 1,2,3,6-Tetrahydro-1-methyl-4-(1-methylpyrrol-2-yl)pyridine, hydrochloride salt]
ED50 [1]: 1.4 mg/kg
ED50 [2]: 0.8 mg/kg

Reference: patent US4267185A, “Antidepressant pyrrolylpiperidines, their pharmaceutical compositions and method of use” (E. I. Du Pont de Nemours and Company, priority 1980, dated 1981)
